Columns and labels:
[1] = tested on: hepatocytes; type: in vitro ADME; conditions: human
Method: The human […] stability of the compounds as predicted hepatocyte clearance in L/hr/kg was assessed. Compounds to be tested were diluted to 200 μM (4 μl of 10 mM DMSO stock into 196 μl ACN:H2O (50:50). Propranolol was used as a positive control, and buffer only without hepatocytes as 0% control. These were further diluted 4 μl with 891 μl KHB buffer (InVitroGRO catalog number Z99074) to provide 2× dosing solution. To each well of 24 well plate, 250 μl of the 2× dosing solution was added to each well with 250 μl of hepatocytes cells (1×10^6 viable cells/ml per well) or KHB for control samples to achieve a final compound concentration of 1 μM during incubation. The final solvent concentration was 0.01% DMSO and 0.25% ACN. The culture plate was placed on a rocker and incubated at 37° C., 5% CO2. Samples were collected at time 0, 1, 3, and 6 hours. The loss of parent compound was determined using LC-MS methods against a standard curve.

[2] = tested on: basophils (CD63 expression) in human whole blood; assay: 384-well HTBS Whole Blood CD63 Basophil Assay; type: cell-based; conditions: human whole blood (25% blood); comparison table
Method: Syk activity was assessed in relation to reduced activation of basophils as measured by the expression of CD63 in a human whole blood basophil cellular assay (25% blood). Basophil activation was measured in human whole blood using the Flow CAST kit (Buhlmann Laboratories AG, Baselstrasse, Switzerland) following the protocol provided by the manufacturer with minor modifications. Fresh human whole blood in heparin was collected and delivered same day (AllCells, Emeryville, Calif.). Whole blood samples were incubated with either DMSO (1% final) or serial diluted compounds in DMSO for 60 minutes at 37° C. Basophils were activated using the anti-FceRI mAb and stained with anti-CD63-FITC and anti-CCR3-PE for 20 minutes at 37° C. (per well: 50 μL of whole blood was mixed with 113 μL of stimulation buffer, 8.5 μL anti-FceRI mAb, 8.5 μL Ab stain CCR3-PE/CD63-FITC). Cells were centrifuged at 1000×g for 18 minutes and 150 μL/well of supernatant removed. Red blood cells were lysed and cells fixed by 2 rounds of cell lysing: resuspending cell pellets with 150 μL/well 1× lysis buffer, incubating at room temperature for 10 minutes, and collecting cell pellets by centrifuging for 1200 rpms for 5 minutes. Cells were washed with 150 μL/well wash buffer twice, and resuspended in a final volume of 75 μL/well of wash buffer for either immediate flow cytometery analysis or overnight incubation at 4° C. followed by flow cytometry analysis. Degranulation (basophil activation) was detected by CD63 surface expression on CCR3 positive cells. The percent CD63 positive cells within the gated basophil population were determined and normalized to the DMSO (negative control) and control compound (positive control).

[3] = tested on: B cells (CD19+) in PBMCs from cGVHD and inactive cGVHD subjects; assay: Apoptosis Assay: B cells in PBMCs from subjects with active or inactive cGVHD, flow cytometry; type: cell-based, human; conditions: 48 hours
Method: Entospletinib (Formula I) was prepared as a 10 mM stock in dimethyl sulfoxide (DMSO). Before use, entospletinib was thawed from 10 mM DMSO stocks frozen in 0.75 mL polypropylene tubes at −20° C.
For untreated PBMCs, DMSO alone (the diluent used to generate entospletinib stock solution) was used in the cultures at the equivalent volume as for the 1.0 μM entospletinib treatment group. The cells were then incubated for 48 hr at 37° C. and 5% CO2, harvested, and assessed for the frequency of apoptotic B cells by flow cytometry analysis as described below.
Flow Cytometry Analysis—Cultured PBMCs were washed in FACS wash buffer (PBS containing 2% FBS) and then resuspended in FACS wash containing Fc block (Human TruStain FcXTM Fc Receptor Blocking Solution from BioLegend, San Diego, Calif.) at the recommended concentration. Following a 15 minute incubation on ice, the cells were stained with Pacific Blue™ conjugated anti-human CD19 antibody (BioLegend, Inc.) for an additional 30 min and then washed in cold PBS, followed by a second wash with Annexin V Binding Buffer (Annexin V Apoptosis Detection Kit-APC, eBioscience, Inc.) according to the manufacturer's instructions. The cells were then resuspended in Annexin V Binding Buffer containing APC-conjugated Annexin V, and incubated in the dark for 15 min at RT. Finally, the cells were washed with cold Annexin V Binding Buffer, resuspended in cold Annexin V Binding Buffer containing 7-AAD (BD Biosciences), kept on ice, and analyzed immediately on a FACSCantoTM flow cytometer. Flow cytometry data files were analyzed using FlowJo software (version X) to identify B cells and determine the frequencies of apoptotic cells based on Annexin V and 7-AAD staining.
For each set of patient samples, B cell apoptosis induced by entospletinib at each concentration was determined by the following ratio: % Annexin V^+/7-AAD^− B cells (entospletinib-treated)/% Annexin V^+/7-AAD^− B cells (untreated). […] Graphic display and curve fit analysis to determine the EC50 for entospletinib apoptosis-inducing activity in active cGVHD B cells was performed using GraphPad Prism software (GraphPad Software, La Jolla, Calif).

[4] = Kinetic Solubility in phosphate buffer at pH 7.4; type: physicochemical; conditions: 37 °C, aqueous buffer, kinetic from dmso stock; phosphate buffer pH 7.4
Method: The kinetic solubility of compounds in phosphate buffer at pH 7.4 was assessed. The compounds to be tested were dissolved in dimethylsulfoxide at a 10 mM concentration. Stock samples were diluted, 3 μl with 297 μl of the phosphate buffer at pH 7.4 (DulBecco's phosphate buffered saline (Sigma-Aldrich D8662), overall molarity is 0.149 M and pH 7.43). The samples were then incubated for 24 hours at 37° C. with shaking, the centrifuged and an aliquot taken and tested relative to a known standard concentration of 0.1 mM.

COc1ccc(Nc2nc(-c3cccc(N)c3)cn3ccnc23)cc1OC [6-(3-aminophenyl)-N-(3,4-dimethoxyphenyl)imidazo[1,2-a]pyrazin-8-amine, reference compound]
Hheps CL [1]: 4 mL/min/kg | IC50 [2]: 809 nM

Cc1ncc(-c2cn3ccnc3c(Nc3ccc(N4CCOCC4)cc3)n2)cc1N [6-(5-amino-6-methylpyridin-3-yl)-N-(4-morpholinophenyl)imidazo[1,2-a]pyrazin-8-amine, reference compound]
Hheps CL [1]: 13.3 mL/min/kg | IC50 [2]: 250 nM

Nc1cncc(-c2cn3ccnc3c(Nc3ccc(N4CCOCC4)cc3)n2)c1 [6-(5-aminopyridin-3-yl)-N-(4-morpholinophenyl)imidazo[1,2-a]pyrazin-8-amine, reference compound]
Hheps CL [1]: 11.3 mL/min/kg

COc1ccc(Nc2nc(-c3ccc(N)nc3)cn3ccnc23)cc1OC [6-(6-aminopyridin-3-yl)-N-(3,4-dimethoxyphenyl)imidazo[1,2-a]pyrazin-8-amine, reference compound]
Hheps CL [1]: 15 mL/min/kg

c1cn2cc(-c3ccc4cn[nH]c4c3)nc(Nc3ccc(N4CCOCC4)cc3)c2n1 [Entospletinib, 6-(1H-indazol-6-yl)-N-(4-morpholinophenyl)imidazo[1,2-a]pyrazin-8-amine]
B cell apoptosis, one subject with cGVHD with low level of baseline apoptosis ([3]; 1.0-0.0078 μM): dose-dependent increase in B cell apoptosis | B cell apoptosis, other two cGVHD subjects with higher baseline level of apoptosis ([3]; 1.0-0.0078 μM): caused an increase in B cell apoptosis | apoptosis of B cells obtained from subjects with cGVHD ([3]; 1.0-0.0078 μM): caused apoptosis of B cells | B cell apoptosis in cGVHD samples versus subjects without cGVHD ([3]; >125 nM ENTO, mean of 3 donors): statistically significant dose-dependent increase in B cell apoptosis | Annexin V+/7AAD− (frequency of parent) ([3]; Inactive #1, 7.8 nM): 47.7 | Annexin V+/7AAD− (frequency of parent) ([3]; Inactive #1, 15.6 nM): 45.7 | Annexin V+/7AAD− (frequency of parent) ([3]; Inactive #1, 31.3 nM): 46.6 | Annexin V+/7AAD− (frequency of parent) ([3]; Inactive #1, 62.5 nM): 47.5 | Annexin V+/7AAD− (frequency of parent) ([3]; Inactive #1, 125 nM): 53.4 | Annexin V+/7AAD− (frequency of parent) ([3]; Inactive #1, 250 nM): 51.3 | Annexin V+/7AAD− (frequency of parent) ([3]; Inactive #1, 500 nM): 48.7 | Annexin V+/7AAD− (frequency of parent) ([3]; Inactive #1, 1000 nM): 44.4 | Annexin V+/7AAD− (frequency of parent) ([3]; Inactive #2, 7.8 nM): 41.5 | Annexin V+/7AAD− (frequency of parent) ([3]; Inactive #2, 15.6 nM): 39.8 | Annexin V+/7AAD− (frequency of parent) ([3]; Inactive #2, 31.3 nM): 43.9 | Annexin V+/7AAD− (frequency of parent) ([3]; Inactive #2, 62.5 nM): 42.2 | Annexin V+/7AAD− (frequency of parent) ([3]; Inactive #2, 125 nM): 43.2 | Annexin V+/7AAD− (frequency of parent) ([3]; Inactive #2, 250 nM): 44.9 | Annexin V+/7AAD− (frequency of parent) ([3]; Inactive #2, 500 nM): 50.2 | Annexin V+/7AAD− (frequency of parent) ([3]; Inactive #2, 1000 nM): 50.4 | Annexin V+/7AAD− (frequency of parent) ([3]; Inactive #3, 7.8 nM): 50.4 | Annexin V+/7AAD− (frequency of parent) ([3]; Inactive #3, 15.6 nM): 51.2 | Annexin V+/7AAD− (frequency of parent) ([3]; Inactive #3, 31.3 nM): 51.7 | Annexin V+/7AAD− (frequency of parent) ([3]; Inactive #3, 62.5 nM): 52.1 | Annexin V+/7AAD− (frequency of parent) ([3]; Inactive #3, 125 nM): 52.4 | Annexin V+/7AAD− (frequency of parent) ([3]; Inactive #3, 250 nM): 56.2 | Annexin V+/7AAD− (frequency of parent) ([3]; Inactive #3, 500 nM): 57.1 | Annexin V+/7AAD− (frequency of parent) ([3]; Inactive #3, 1000 nM): 55.6 | Annexin V+/7AAD− (frequency of parent) ([3]; cGVHD #1, 7.8 nM): 40.1 | Annexin V+/7AAD− (frequency of parent) ([3]; cGVHD #1, 15.6 nM): 40.4 | Annexin V+/7AAD− (frequency of parent) ([3]; cGVHD #1, 31.3 nM): 42.0 | Annexin V+/7AAD− (frequency of parent) ([3]; cGVHD #1, 62.5 nM): 48.2 | Annexin V+/7AAD− (frequency of parent) ([3]; cGVHD #1, 125 nM): 48.2 | Annexin V+/7AAD− (frequency of parent) ([3]; cGVHD #1, 250 nM): 50.7 | Annexin V+/7AAD− (frequency of parent) ([3]; cGVHD #1, 500 nM): 53.6 | Annexin V+/7AAD− (frequency of parent) ([3]; cGVHD #1, 1000 nM): 55.0 | Annexin V+/7AAD− (frequency of parent) ([3]; cGVHD #2, 7.8 nM): 41.0 | Annexin V+/7AAD− (frequency of parent) ([3]; cGVHD #2, 15.6 nM): 40.7 | Annexin V+/7AAD− (frequency of parent) ([3]; cGVHD #2, 31.3 nM): 39.6 | Annexin V+/7AAD− (frequency of parent) ([3]; cGVHD #2, 62.5 nM): 41.5 | Annexin V+/7AAD− (frequency of parent) ([3]; cGVHD #2, 125 nM): 43.9 | Annexin V+/7AAD− (frequency of parent) ([3]; cGVHD #2, 250 nM): 48.6 | Annexin V+/7AAD− (frequency of parent) ([3]; cGVHD #2, 500 nM): 48.3 | Annexin V+/7AAD− (frequency of parent) ([3]; cGVHD #2, 1000 nM): 53.5 | Annexin V+/7AAD− (frequency of parent) ([3]; cGVHD #3, 7.8 nM): 19.6 | Annexin V+/7AAD− (frequency of parent) ([3]; cGVHD #3, 15.6 nM): 20.0 | Annexin V+/7AAD− (frequency of parent) ([3]; cGVHD #3, 31.3 nM): 20.8 | Annexin V+/7AAD− (frequency of parent) ([3]; cGVHD #3, 62.5 nM): 21.6 | Annexin V+/7AAD− (frequency of parent) ([3]; cGVHD #3, 125 nM): 26.4 | Annexin V+/7AAD− (frequency of parent) ([3]; cGVHD #3, 250 nM): 29.5 | Annexin V+/7AAD− (frequency of parent) ([3]; cGVHD #3, 500 nM): 32.7 | Annexin V+/7AAD− (frequency of parent) ([3]; cGVHD #3, 1000 nM): 42.2

Cc1ncc(-c2cn3ccnc3c(Nc3ccc(N4CCN(C5COC5)CC4)cc3)n2)nc1N [Ex.-1, 6-(6-amino-5-methylpyrazin-2-yl)-N-(4-(4-(oxetan-3-yl)piperazin-1-yl)phenyl)imidazo[1,2-a]pyrazin-8-amine]
solubility kinetic at 24 h [4]: > 90 µM | Hheps CL [1]: 2 mL/min/kg

Nc1cncc(-c2cn3ccnc3c(Nc3ccc(N4CCN(C5COC5)CC4)cc3)n2)n1 [Ex.-2, 6-(6-aminopyrazin-2-yl)-N-(4-(4-(oxetan-3-yl)piperazin-1-yl)phenyl)imidazo[1,2-a]pyrazin-8-amine]
solubility kinetic at 24 h [4]: > 90 µM | Hheps CL [1]: 0.917 mL/min/kg

Cc1ncc(-c2cn3ccnc3c(Nc3ccc(N4CCN(C5COC5)CC4)c(OCCO)c3)n2)nc1N [Ex.-7, 2-(5-((6-(6-amino-5-methylpyrazin-2-yl)imidazo[1,2-a]pyrazin-8-yl)amino)-2-(4-(oxetan-3-yl)piperazin-1-yl)phenoxy)ethanol]
solubility kinetic at 24 h [4]: > 90 µM | Hheps CL [1]: 0.833 mL/min/kg

Source: patent US20160375019A1, “TREATMENT OF CHRONIC GRAFT VERSUS HOST DISEASE WITH SYK INHIBITORS” (Gilead Sciences, Inc., priority 2015, published 2016)
